Data published in patent US20080020385A1, “Use Of A Genetic Modification In The Human Gnaq Gene For Predicting Risk Of Disease, The Course Of Disease, And Reaction To Treatments” (priority 2004, published 2008).

Key:
skin blood circulation = assay: Change of skin blood circulation after injection of vasoconstrictors under the skin; type: in vivo; settings: injected under the skin of human individuals, by GC(-909/-908)TT genotype
Protocol: As an example for the general usability of the GNAQ GC(−909/−908)TT polymorphism to predict drug actions, the vasoconstrictors angiotensin II, noradrenaline or endothelin were injected under the skin of human individuals, and the following change of blood circulation was recorded (FIG. 18).

GNAQ promoter = assay: SEAP reporter assay of GNAQ promoter construct -798/+89 (GC or TT genotype) in stimulated HEK cells; type: cell-based, human; settings: construct -798/+89, stimulation with 10 nM angiotensin II, p<0.05
From the text: For functional detection of a modified promoter activity in relation to specific genotypes, various fragments of the promoter with the GC or the TT genotype were cloned into the pSEAP vector to quantify the promoter activity after expression of the vector in HEK cells in a so-called reporter assay (FIG. 5). For this assay, constructs are cloned before a gene encoding the secreted alkaline phosphatase (SEAP). If the construct has promoter activity, the SEAP gene will be transcribed more, and the increased secretion of alkaline phosphatase into the cell culture medium can be measured. […] Since the polymorphism is located in this region (−697/−695 relative from the transcription starting point) showing the highest reporter activity, and furthermore a transcription factor binding site is influenced by the nucleic acid exchange, it is now studied if stimulation of HEK cells has an effect on the reporter activity of these constructs. For this, construct −798/+89 was transfected into HEK cells, together with either the GC(−909/−908) or the TT(−909/−908) polymorphism, and the cells were stimulated with serum or angiotensin II (FIG. 6). […] In order to verify if this regulation also occurs in vivo, Gαq expression was analyzed on mRNA level by real time-PCR.

human adipocytes = assay: Inhibition of isoprenaline-induced lipolysis (glycerol release) in human adipocyte cultures; type: cell-based; settings: human adipocytes ex vivo, by GC(-909/-908)TT genotype
From the text: The inhibiting effect of insulin on lipolysis was studied in human adipocyte cultures. For this, lipolysis was induced ex vivo in human adipocytes by isoprenaline, and the inhibiting effect of insulin was studied by adding insulin to the cultures. Lipolysis was quantified by glycerol release (Hauner et al., 2002). […] This coincides with the observation of an increased gene expression of Gq in this genotype.

| Compound | reduction of skin blood circulation (skin blood circulation) | promoter activity (secreted alkaline phosphatase), GC genotype compared to TT genotype (GNAQ promoter) | inhibiting effect on isoprenaline-induced lipolysis (glycerol release) (human adipocytes) |
| --- | --- | --- | --- |
| CC[C@H](C)[C@H](NC(=O)[C@H](CC(=O)O)NC(=O)[C@H](CC(C)C)NC(=O)[C@H](Cc1c[nH]cn1)NC(=O)[C@@H]1CSSC[C@H](N)C(=O)N[C@@H](CO)C(=O)N[C@H]2CSSC[C@H](NC(=O)[C@H](CCC(=O)O)NC(=O)[C@H](CCCCN)NC(=O)[C@H](CC(=O)O)NC(=O)[C@H](CCSC)NC(=O)[C@H](CC(C)C)NC(=O)[C@H](CO)NC(=O)[C@H](CO)NC2=O)C(=O)N[C@@H](C(C)C)C(=O)N[C@@H](Cc2ccc(O)cc2)C(=O)N[C@@H](Cc2ccccc2)C(=O)N1)C(=O)N[C@H](C(=O)N[C@@H](Cc1c[nH]c2ccccc12)C(=O)O)[C@@H](C)CC [endothelin] | reduction of skin blood circulation is highest for the GC/GC genotype | – | – |
| NC[C@H](O)c1ccc(O)c(O)c1 [noradrenaline] | reduction of skin blood circulation is highest for the GC/GC genotype | – | – |
| angiotensin II (DRVYIHPF; Angiotensin-2; UniProt P01019 25-32, looked up) [hormone, vasoconstrictor] | reduction of skin blood circulation is highest for the GC/GC genotype | two to four times increased promoter activity compared to the TT genotype | – |
| insulin | – | – | inhibiting insulin effect was strongest with adipocytes from individuals with GCGC genotype |
